What was measured:
breast cancer xenografts = conditions: TPL 0.5 mg/kg; cited from earlier work
[1] = tested on: OCC1-SEAP ovarian cancer cells; experiment: Cell survival by DNA content of culture wells (Example II); assay type: cell-based, human; conditions: 48 hours; triptolide 100 ng/ml, carboplatin 50 (FIG. 8 legend: mg/ml)
Procedure: Cell survival was assessed as the number of cells remaining in culture, following exposure to treatments. The DNA content of individual culture wells was used as an indication of cell number. Cells plated in 24 well culture plates were allowed to approach confluence (80%) in Ham's F-12 medium plus 10% BCS. Cultures were then incubated in DMEM, plus 0.1% BSA and 0.1% BCS, in the presence of vehicle control, carboplatin (0-100 μg/ml), Triptolide (100 ng/ml) or a combination of these for 24 to 96 hrs. Media aliquots were taken when appropriate for SEAP analysis. The DNA was measured fluorometrically, as described above, in Example I. Briefly, the fluorescence of an aliquot of sonicated cell suspension, into which SYBR Green I fluorescent dye (Molecular Probes, Eugene, Oreg.), had been incorporated was measured.

OCC1-SEAP tumor = experiment: Nude mouse tumor model, intraperitoneal OCC1-SEAP cells, plasma SEAP (Example II); assay type: in vivo
Text: Athymic nude mice (NCR Nu/Nu) were either purchased from Taconic (Germantown, N.Y.) or bred in-house at Washington State University, Pullman, Wash. The OCC1-SEAP cells were collected in Hank's balanced salt solution and counted prior to injection. Treatments were initiated 7 to 10 days following an intraperitoneal inoculation of mice with 1×10^7 OCC1-SEAP cells, as described above, in Example I.
Stock solutions of carboplatin (paraplatin; Bristol-Myers Squibb, Princeton, N.J.) and TPL (Calbiochem, CA), were prepared in sterile filtered PBS and DMSO, respectively. Animals received intraperitoneal injections of either vehicle controlled (PBS containing 4% DMSO), or carboplatin (60 mg/kg), alone, or in combination with TPL (0-1.0 mg/kg), every other day for 5 days. Alternatively, TPL (0.15 mg/kg) was injected every day for 10 days. For these experiments, carboplatin was administered under the same schedule of every other day for 5 days. Some mice were also treated with 40 mg/kg of LY294002 every other day for 5 days, with an intraperitoneal injection in the presence of TPL and carboplatin. Blood samples were collected into capillary tubes from saphenous vein lancings at regular intervals during and following treatments. The capillary tubes were centrifuged and the plasma samples were frozen at −20° C., until the time of SEAP assay. The Washington State University Animal Care and Use Committee approved all procedures.
Blood plasma and cell culture medium samples were assayed for SEAP activity using the Great EscAPe SEAP fluorescence detection kit (Clontech Laboratories, Palo Alto, Calif.), as described above in Example I. Blood plasma samples were diluted 1:100, prior to the assay to bring values within the linear range of the standard curve. The intraassay and interassay coefficients of variation were 2.5% and 18.8%, respectively. In the case of the experiments in which mice were treated with a combination of TPL, LY294002 and carboplatin, there was some variation in the extent of tumor growth in the control mice. In order to better compare response to treatment across experiments, the SEAP assay data between experiments were normalized by dividing each data point by the overall mean of all SEAP measurements from that experiment and up, through day 18. The normalized data then reflect the relative tumor burden of each mouse, compared to others in the experimental group, and can be combined across experiments.

OCC1-SEAP cell cultures = experiment: DNA fragmentation (laddering) on agarose gel (Example II); assay type: cell-based, human; conditions: 48 hr; TPL 100 ng/ml, carboplatin 50 μg/ml
Procedure: Following 48 h to 72 h treatment incubations, cells were suspended into culture medium and pelleted in tubes. DNA was isolated from collected cells using a Puregene™ DNA isolation kit (Gentra Systems, Minneapolis, Minn.). The quantity and purity of nucleic acid preparations were estimated by measuring the absorbance of each sample (A260/A280). DNA preparations (10 μg/well) were loaded onto 1.2% agarose gels and visualized with ethidium bromide stain.

solid tumor types = conditions: TPL 0.15 mg/kg; cited from earlier work
[2] = TPL 0.15 mg/kg, nude mice; cited from earlier work
caspase-3 = experiment: Western blot for active caspase-3 (Example II); assay type: cell-based, human; conditions: 24 h; TPL 100 ng/ml, carboplatin 50
[3] = tested on: OCC1-SEAP-12 ovarian cancer cells; experiment: Cell survival by DNA content of culture wells (Example III); assay type: cell-based, human
Procedure: Cell survival was assessed as cell number remaining in culture following exposure to treatments. The DNA content of individual culture wells was used as an indication of cell number. Cells plated in 24 well culture plates were allowed to approach confluence (80%) in Ham's F-12 medium plus 10% BCS. […] Media aliquots were taken when appropriate for SEAP analysis. The DNA was measured fluorometrically as previously described (Nilsson […], Ligon […]. An in vivo mouse reporter gene (human secreted alkaline phosphatase) model to monitor ovarian tumor growth and response to therapeutics. Cancer Chemother Pharmacol 2002; 49(2):93-100). Briefly, the fluorescence of aliquots of sonicated cell suspensions into which SYBR Green I fluorescent dye (Molecular Probes, Eugene Oreg.) had been incorporated, was measured.

[4] = tested on: OCC1-SEAP-12 ovarian cancer cells; conditions: LY294002 alone (Westfall and Skinner 2005); cited from earlier work
Akt = experiment: Western blot for Akt phosphorylation (Example III); assay type: cell-based, human; conditions: 6 hr and 24 hr; LY294002 10 (FIG. 18 legend: mM), carboplatin 50
Procedure: The OCC1-SEAP-12 cells were grown to 80% confluence. […] […] Total cell lysates were subjected to SDS polyacrylamide gel electrophoresis 9 page) and transferred to PVDF membranes (Millipore, Bedford, Mass.). Membranes were immunoblotted with antibodies to both the phosphorylated and non-phosphorylated forms of […] (Cell Signaling Technology, Beverly, Mass.), or alternatively, with antibodies to cleaved and full length caspase-3 (Cell Signaling Technology, Beverly, Mass.).

OCC1-SEAP-12 cells = experiment: Growth assay, [3H] thymidine incorporation (Example III); assay type: cell-based, human; conditions: LY294002, 18h treatment
Procedure: Cell proliferation was analyzed by determining the amount of [^3H] thymidine incorporation Into newly synthesized DNA. The OCC1-SEAP-12 cells were plated in 24 well plates in Ham's F-12 medium plus 10% BCS and allowed to reach 50 to 70% confluence. Following a 48 hr serum starvation, the culture medium was changed to Dulbecco's Modified Eagle Medium (DMEM) plus 0.1% BSA and 0.1% BCS containing either vehicle control or carboplatin (0-100 μg/ml) alone, or in combination with LY294002 (0-20 μM). Treatments were removed after 18h and cells were incubated for 4 hr in medium containing 5 μCi/ml of [^3H] thymidine. Medium was removed and cells were disrupted by sonication in phosphate buffered saline (PBS). An aliquot of the sonicated solution of PBS was loaded onto a DEAE filtration plate (Millipore, Bedford, Mass.), and individual filters with bound DNA were collected for scintillation counting. Data was normalized to total DNA per well and was determined by a SYBR green fluorescent assay (Nilsson E E, Westfall S D, McDonald C, Ligon T, Sadler-Riggleman I, Skinner M K. An in vivo mouse reporter gene (human secreted alkaline phosphatase) model to monitor ovarian tumor growth and response to therapeutics. Cancer Chemother Pharmacol 2002; 49(2):93-100).

[5] = tested on: OCC1-SEAP-12 ovarian cancer cells; assay type: in vivo
Procedure: Athymic nude mice were obtained and inoculated intraperitoneally with OCC1-SEAP-12 cells as described above in Examples I and II. Animals received injections of either vehicle control (PBS containing 25% DMSO), or carboplatin (60 mg/kg) alone, or in combination with LY294002 (50 mg/kg) every other day for 6 days. Blood samples were collected into capillary tubes from saphenous vein lancings at regular intervals during and following treatments. Capillary tubes were centrifuged, and the plasma samples were frozen (−20° C.), until the time of SEAP assay. The Washington State University Animal Care and Use Committee approved all procedures.
Blood plasma and cell culture medium samples were assayed for SEAP activity using the Great EscAPe SEAP fluorescence detection kit (Clontech Laboratories, Palo Alto, Calif.) as described above in Examples I and II. Blood plasma samples were diluted 1:100 prior to the assay to bring values within the linear range of the standard curve. The intraassay and interassay coefficients of variation were 2.5% and 18.8%, respectively.

caspase 3 = experiment: Western blot for active caspase 3 (Example III); assay type: cell-based, human; conditions: LY294002 10 μM, carboplatin 50 μg/ml
Procedure: The OCC1-SEAP-12 cells were grown to 80% confluence. Cultures were incubated in DMEM plus 0.1% bovine serum albumin (BSA) and 0.1% BCS to which either vehicle control, carboplatin (0-50 μg/ml), LY294002 (0-20 μM) or combinations of these treatments. Following 24, 48 or 72 hr cells were lysed with sample buffer (62.5 mM Tris-HCl, pH 6.8, 2% SDS, 5% glycerol, […], 0.5% β-mercaptoethanol). Total cell lysates were subjected to SDS polyacrylamide gel electrophoresis 9 page) and transferred to PVDF membranes (Millipore, Bedford, Mass.). Membranes were immunoblotted with antibodies to both the phosphorylated and non-phosphorylated forms of […] (Cell Signaling Technology, Beverly, Mass.), or alternatively, with antibodies to cleaved and full length caspase-3 (Cell Signaling Technology, Beverly, Mass.).

[6] = tested on: OCC1-SEAP intraperitoneal tumors; experiment: Nude mouse intraperitoneal OCC1-SEAP tumor model, plasma SEAP (Example I); assay type: in vivo, athymic nude mice
Procedure: Athymic nude mice (Nu/Nu; Charles River Laboratories, Wilmington, Mass.) weighing about 25 g were used for in vivo studies.
Three mice were injected intraperitoneally with 1×10^7 OCC1-SEAP-12 cells. The experimental treatments began after 1 week. […] Alternatively, four mice with well-developed tumors (2-4 weeks after injection) were treated with a high dose of carboplatin (60 mg/kg) three times over a period of 4 days. After death all visible intraperitoneal tumors were dissected out and weighed.
Blood samples were collected from saphenous vein lancings three times per week into heparinized capillary tubes. The capillary tubes were centrifuged and the plasma samples were frozen at −20° C. until the time of SEAP assay. Blood samples were taken for SEAP assay from the mice within 24 hours of death 2-3 weeks after intraperitoneal injection of OCC1-SEAP cells.
Blood plasma and cell culture medium samples were assayed for SEAP activity using the Great EscAPe SEAP fluorescence detection kit (Clontech Laboratories, Palo Alto, Calif.). SEAP is secreted at a constant rate by transfected tumor cells and distributed throughout the body or into the culture medium. SEAP is heat stable, so any endogenous alkaline phosphatase activity in blood plasma is destroyed by heat treatment of the samples (65° C. for 30 minutes) during the assay. The SEAP enzyme in each sample acts on the substrate 4-methylumbelliferyl phosphate during a 1 hour incubation at room temperature to produce a fluorescent product with excitation and emission peaks at 360 and 449 nm, respectively. A fluorimeter is then used to measure SEAP activity. The intra-assay and inter-assay coefficients of variation were 2.5% and 18.8%, respectively. Blood plasma samples were diluted 1:100 prior to the assay to bring values within the linear range of the standard curve.

## CC(C)[C@]12O[C@H]1[C@@H]1O[C@]13[C@]1(O[C@H]1C[C@H]1C4=C(CC[C@@]13C)C(=O)OC4)[C@@H]2O [TPL, Triptolide]
Breast cancer xenografts
  toxicity of dose: lethal
[1]
  decrease in cell survival (μg DNA/ml) compared to control cultures: approximately 40%
OCC1-SEAP tumor; TPL 0.5 mg/kg ip every other day over 5 days
  toxicity: no apparent toxicity
OCC1-SEAP tumor; TPL 1.0 mg/kg intraperitoneal
  mice expired within 24 hours: 2 of 3
OCC1-SEAP tumor; TPL 0.125, 0.25 or 0.5 mg/kg ip every other day over 5 days
  SEAP values vs vehicle control: not significant differences
OCC1-SEAP tumor; high dose, short duration: TPL 0.5 mg/kg, carboplatin 60 mg/kg every other day for 5 days
  tumor burden vs vehicle control (FIG. 11): no significant difference
OCC1-SEAP tumor; low dose, long duration: TPL 0.15 mg/kg every day for 10 days, carboplatin 60 mg/kg every other day for 5 days
  tumor burden as measured by SEAP levels vs vehicle control (FIG. 12): no significant difference
OCC1-SEAP cell cultures
  DNA laddering: evident
Solid tumor types
  inhibition of growth and metastasis of solid tumors: potent
[2]
  dose as share of the maximum tolerated dose: 60%
caspase-3
  induction of active caspase-3: robust induction

## O=c1cc(N2CCOCC2)oc2c(-c3ccccc3)cccc12 [LY294002, 2-(4-morpholinyl)-8-phenyl-4H-1-benzopyran-4-one]
[3]; 5 μM LY294002, 48 hr incubation
  reduction of cell number: 22%
[3]; 10 μM LY294002, 48 hr incubation
  reduction of cell number: 44%
[4]
  effect on ovarian cancer tumor progression: negligible effects
Akt
  Akt phosphorylation: blocked basal levels
OCC1-SEAP-12 cells
  block of basal DNA synthesis: 50%
[5]; physical appearance of mice after treatment
  abdominal swelling (FIG. 24): displayed abdominal swelling
[5]; single agents: LY294002 50 mg/kg, carboplatin 60 mg/kg
  tumor size vs vehicle control (FIG. 23): no significant difference
Caspase 3
  time at which active 17 kDa caspase 3 appears: 72 h

## N.N.[Cl][Pt][Cl] [cisplatin]
[6]; 3 or 10 mg/kg cisplatin every 48-72 h over a 2-week period, intraperitoneal
  tumor growth by plasma SEAP compared to vehicle controls: decreased tumor growth
[6]; cisplatin 3 vs 10 mg/kg
  difference in tumor growth between 3 and 10 mg/kg: No difference

From patent US20110045102A1, “Cancer chemotherapy compositions comprising PI3K pathway modulators and triptolide” (priority 2005, published 2011)
